Measurements taken from patent US7473437B2, “Method of forming fluorescent image, fluorescent image, and ink-jet recording method” (Canon Kabushiki Kaisha, priority 2004, dated 2009).
Values joined by “and” are separate entries in the source; they are usually repeats but may differ in a detail not shown here. Equal values may be shown once.

Tests used:
Assay type in all cases: physicochemical
[1] = Fluorescent coloring material content causing concentration quenching; details: image printed on a recording material
Procedure: The following respective components as ink composition to be used were mixed and sufficiently stirred, and the resultant was dissolved and/or dispersed. After that, the resultant was filtered through a Phloropore filter (trade name; manufactured by Sumitomo Electric Industries, Ltd.) having a pore size of 0.1 μm under pressure to prepare each ink. An ink 1, an ink 2, an ink 3, and an ink 5 were defined as inks of Examples and an ink 4 was defined as Reference Example. The content of each fluorescent coloring material in ink for causing the concentration quenching of a fluorescent image printed on a recording material is 0.3% by mass or more for C.I. Acid Red 52, 2.0% by mass or more for C.I. Acid Red 92, or more than 2.0% by mass for the compound (A).
In each of the above ink compositions, the fluorescence intensity of each of the inks 1 to 4 was measured by means of a commercially available fluorescence measuring device […] (trade name; manufactured by JASCO Corporation).

[2] = Light absorption spectrum of coloring materials
Procedure: Next, the multiple fluorescent coloring materials will be described more specifically with reference to multiple fluorescence examples and reference examples. Here, measurement values obtained with purified water diluted solutions of coloring materials were used for an absorption wavelength region, a maximum absorption wavelength region, and a fluorescence wavelength region. Using an absorption spectrometer, absorption wavelengths were measured. A diluted solution was prepared in such a manner that the absorbance thereof was in the range of 0.5 to 0.7. A higher region from a base line as the absorption peak of the coloring material was defined as an absorption wavelength region, and the peak value was defined as a maximum absorption wavelength. In addition, for fluorescence wavelengths, the measurement conditions were set so that the fluorescence intensities were not beyond the measurement threshold value. Then, fluorescence wavelengths were measured by using the diluted solution used in the measurement of absorbance and by fixing the excitation wavelengths of the first and second coloring materials at predetermined wavelengths. A region higher than the base line was defined as a fluorescent emission wavelength region.
The absorption wavelength regions of the first and second coloring materials were measured using a spectrophotometer U-3200 (trade name; manufactured by Hitachi Ltd.) after the dye had been diluted 100,000-fold with purified water. The absorption wavelength region of the first coloring material ranged from 450 to 620 nm, and the maximum absorption wavelength thereof was 565 nm. In addition, the absorption wavelength region of the second coloring material ranged from 300 to 450 nm, and the maximum absorption wavelength thereof was 372 nm.

[3] = Fluorescent emission and excitation spectra of evaporated ink (FP-750); details: standard excitation wavelength 254 nm
Procedure: At first, a predetermined amount (in this case, 0.3% by mass with respect to the solution) of C.I. Acid Red 52 (AR52) as the first fluorescent coloring material was dissolved into an aqueous solution (an organic solvent such as glycerin and purified water), followed by heating at 60° C. to completely vaporize water content, resulting in ink (hereinafter, referred to as evaporated ink).
The fluorescent emission spectra and excitation spectra of the first and second fluorescent coloring materials were measured using a fluorometer FP-750 (trade name; manufactured by JASCO Corporation). Each measurement sample was an ink from which water content was evaporated to remove the influence of water on the measurement.

Compound	content of fluorescent coloring material in ink causing concentration quenching of a printed fluorescent image [1] [% by mass]	maximum absorption wavelength ([2]; dye diluted 100,000-fold with purified water, spectrophotometer U-3200) [nm]	absorption peak wavelength ([2]; from FIGS. 5, 6, 12, listed as AR52)	fluorescent emission peak wavelength [3] [nm]	absorption peak wavelength ([2]; from FIGS. 5, 6, 12) [nm]	absorption spectrum range, visible light ([2]; from FIGS. 5, 6, 12) [nm]
O=C([O-])c1c(Cl)c(Cl)c(Cl)c(Cl)c1-c1c2cc(Br)c(=O)c(Br)c-2oc2c(Br)c([O-])c(Br)cc12.[Na+].[Na+] [C.I. Acid Red 92]	≥ 2.0	–	–	–	–	–
CCN(CC)c1ccc2c(-c3ccc(S(=O)(=O)[O-])cc3S(=O)(=O)[O-])c3ccc(=[N+](CC)CC)cc-3oc2c1.[Na+] [C.I. Acid Red 52]	≥ 0.3	565	565 nm and ~560 nm	600	–	–
O=C([O-])c1ccccc1-c1c2ccc(=O)cc-2oc2cc([O-])ccc12.[Na+].[Na+] [C.I. Acid Yellow 73, reference compound]	–	–	–	530	490	≤ 525
